Test results as given in ChEMBL document CHEMBL3045154, “Synthesis and Insecticidal Activity of 1, 3-Dithianes” (1991).

Legend:
Assay type in all cases: functional
[1] = tested on: Henosepilachna vigintioctopunctata; assay: Insecticidal activity against third-instar larvae of Henosepilachna vigintioctopunctata assessed as mortality at 100 ppm after 2 days; conditions: 48 h
Tetranychus urticae = assay: Insecticidal activity against Tetranychus urticae (two-spotted spider mite) in kidney bean plant leaf assessed as mortality at 500 ppm after 2 days; conditions: 48 h
Chilo suppressalis = assay: Insecticidal activity against 5th instar larva of Chilo suppressalis assessed as mortality at 50 ug/g after 48 hr

Row | Compound | mortality at 100 ppm [1] [%] | mortality at 500 ppm (Tetranychus urticae) [%] | mortality (Chilo suppressalis) [%]
1 | CN(C)C1CSC(C#N)SC1 (stereo unspecified) | 30 | 80 | 100
2 | CCOC(=O)C1(C(=O)OCC)SCC(N(C)C)CS1 | 85 | 100 | 100
3 | CN(C)C1CSCSC1 | 10 | 20 | 30
4 | CC(=O)C1(C(C)=O)SCC(N(C)C)CS1 | 70 | 40 | 100
5 | CCN(CC)C1CSC(C#N)(c2ccc(Cl)cc2)SC1 (stereo unspecified) | – | 100 | 100
6 | CN(C)C1CSC(C#N)(c2ccccc2)SC1 (stereo unspecified) | 30 | 100 | 100
7 | CNC(=O)C1(C#N)SCC(N(C)C)CS1 (stereo unspecified) | 85 | 100 | 100
8 | CC(=O)C1SCC(N(C)C)CS1 (stereo unspecified) | 65 | 100 | 100
9 | N#CC1(c2ccc(Cl)cc2)SCC(OC(=O)Nc2ccc(Cl)cc2)CS1 (stereo unspecified) | – | 60 | 0
10 | CN(C)C1CSC(C(N)=O)(C(N)=O)SC1 | 100 | 60 | 100
11 | N#CC1(c2ccc(Cl)cc2)SCC(O)CS1 (stereo unspecified) | – | 30 | 0
12 | N#CC1(C(=O)O)SCCCS1 | – | 0 | 0
13 | CCOC(=O)C1SCC(N(C)C)CS1 (stereo unspecified) | 45 | 100 | 80
14 | O=C(c1ccccc1)C1(C(=O)c2ccccc2)SCC(O)CS1 | – | 40 | 0
15 | CCCC1(C#N)SCC(N(C)C)CS1 (stereo unspecified) | 30 | 70 | 100
16 | CCOC(=O)C1(C#N)SCC(N(C)C)CS1 (stereo unspecified) | 60 | 100 | 100
17 | CN(C)C1CSC(C#N)(C(N)=O)SC1 (stereo unspecified) | 85 | 100 | 100
18 | CCOC(=O)C1(C(C)=O)SCC(N(C)C)CS1 (stereo unspecified) | 30 | 100 | 100
19 | C/C(=N\Nc1ccc(Br)cc1)C1SCC(N(C)C)CS1 (stereo unspecified) | 45 | 80 | 100

Row | Compound | mortality at 100 ppm [1] [%] | mortality at 500 ppm (Tetranychus urticae) [%] | mortality (Chilo suppressalis) [%]
20 | CNC1CSC(C#N)(c2ccc(Cl)cc2)SC1 (stereo unspecified) | – | 30 | 10
21 | N#CC1(c2ccc(Cl)cc2)SCC(N2CCCC2)CS1 (stereo unspecified) | – | 100 | 50
22 | CN(C)C1CSSC1 [NEREISTOXIN] | – | 30 | 100
23 | CCOP(=O)(OCC)C1(C#N)SCC(N(C)C)CS1 (stereo unspecified) | 5 | 100 | 100
24 | CC(=O)C1(C(=O)c2ccccc2)SCC(N(C)C)CS1 (stereo unspecified) | 35 | 80 | 100
25 | CC(C)C(C(=O)OC1CSC(C#N)(c2ccc(Cl)cc2)SC1)c1ccc(Cl)cc1 (stereo unspecified) | – | 20 | 0
26 | CCN(CC)C(=S)SC1(C#N)SCC(N(C)C)CS1 (stereo unspecified) | 100 | 90 | 100
27 | CCOP(=S)(OCC)OC1CSC(C#N)(c2ccc(Cl)cc2)SC1 (stereo unspecified) | – | 40 | 0
28 | CNC(=O)OC1CSC(C#N)(c2ccc(Cl)cc2)SC1 (stereo unspecified) | – | 30 | 0
29 | N#CC1(c2ccc(Cl)cc2)SCCCS1 | – | 0 | 0
30 | CC1SCC(N(C)C)CS1 (stereo unspecified) | 10 | 30 | 10
31 | N#CC1(c2ccc(Cl)cc2)SCC(N2CCOCC2)CS1 (stereo unspecified) | – | 90 | 50
32 | CCOC(=O)C1(C(=O)c2ccccc2)SCC(N(C)C)CS1 (stereo unspecified) | 30 | 90 | 100
33 | CN(C)C1CSC(C(=O)c2ccccc2)SC1 (stereo unspecified) | 80 | 50 | 100
34 | CN(C)C1CSC(C(=O)c2ccccc2)(C(=O)c2ccccc2)SC1 | 100 | 80 | 100
35 | CN(C)C1CSC(C#N)(c2ccc(Cl)cc2)SC1 (stereo unspecified) | – | 100 | 100
36 | CCCCN(CCCC)C1CSC(C#N)(c2ccc(Cl)cc2)SC1 (stereo unspecified) | – | 100 | 50
37 | CN(C)C1CSC(C#N)(C#N)SC1 | 100 | 90 | 100
